Data published in patent US20220142159A1, “A METHOD AND COMPOSITION FOR INSECT REPELLENCY USING AVERSIVE AGENT” (UPL LTD, priority 2019, published 2022).

Experiments:
[1] = in vivo; cited from earlier work
Nilgai, deer = experiment: Observed repellence of vermin mammal species; type: in vivo; conditions: because of its bitterness
average person = conditions: cited from earlier work

CC[N+](CC)(CC(=O)Nc1c(C)cccc1C)Cc1ccccc1.O=C([O-])c1ccccc1 [Denatonium benzoate, phenylmethyl-[2-[(2,6-dimethylphenyl)amino]-2-oxoethyl]-diethylammonium benzoate]
human safety in clinical trials [1]: extremely human safe | repellence of vermin mammals (Nilgai, deer): effectively repelled | generally recognized bitter taste (average person; level of recognised bitter taste): 50 ppb | can be detected by the average person (average person; taste detection level): 10 ppb
